Test results taken from US20250242006A1, “DRY POWDER COMPOSITIONS COMPRISING EUKARYOTIC CELLS AND METHOD OF THEIR MANUFACTURE AND USE” (BOARD OF REGENTS, THE UNIVERSITY OF TEXAS SYSTEM, priority 2021, published 2025).

Tested on: J774A.1 cells
Test: Viability of J774A.1 cells after thin-film freeze-drying (TFFD), trypan blue stain
Assay type: cell-based, murine
Text: Excipients that were used for their ability to preserve the cells includes disaccharide such as Trehalose, antioxidants such as EGCG, D-α-tocopherol succinate, D-α-tocopherol PEG1000 succinate, Trolox, glutathione, and L-ascorbic acid, polymers such as PVP-40, P-188, dextrin, dextran, and HSA. An equivalent volume of the above-mentioned excipients in complete DMEM or Dulbecco phosphate buffered saline (DPBS) was mixed with cells at final cell concentration of 2.5×10^6 cells/ml for J774A.1 macrophages or 1.0×10^6 cells/mL for THP-1 cells. Cells mixed with trehalose and antioxidant were incubated at 37° C. in 5% CO2 incubator. Polymers and proteins were added to the cells without incubation. The TFF technique was applied to the cell suspension by dropping them as droplets of 3.6-3.8 mm in diameter, 200 μl in 7-8 drops, from a distance of 1-10 cm onto the surface of a cryogenically cooled glass (˜−80° C. achieved using dry ice), which were then stored in −80° C. for 1 h until the lyophilization process. The lyophilizer shelf temperature was set at −35° C., with vacuum pressure at 100 mTorr for 12 h. To measure the viability of the cells after TFFD, the powders were resuspended in DMEM media or DPBS, and cell viability was assessed after trypan blue stain (0.4%, Gibco, Grand Island, NY) using a TC20 Bio-Rad automatic cell counter (Hercules, CA).

Structure (SMILES)	effect on J774A.1 cell viability after TFFD (antioxidant at 800 μg/ml)	effect on J774A.1 cell viability after TFFD (antioxidant at 500 µM)
Cc1c(C)c2c(c(C)c1OC(=O)CCC(=O)O)CC[C@@](C)(CCC[C@H](C)CCC[C@H](C)CCCC(C)C)O2 [D-α-tocopherol succinate]	helped improve the viability	
Cc1c(C)c2c(c(C)c1O)CCC(C)(C(=O)O)O2 (centres unmarked) [Trolox]		helped improve the viability
